Where only a bound is given, the exact number is not on record here.

The subject of the assay is Glomerella lagenarium (Colletotrichum lagenarium). As to the kind of experiment: Fungicidal activity against Glomerella lagenarium (Colletotrichum lagenarium) liquid culture / cucumber / preventative (anthracnose). In kind it is cell-based. To be noted: Colletotrichum orbiculare; 20 ppm in the applied formulation; liquid culture (PDB), growth inhibition measured photometrically after 3 to 4 days; compared to untreated control; read-out: disease control. The protocol: Mycelia fragments or conidia suspensions of a fungus prepared either freshly from liquid cultures of the fungus or from cryogenic storage, are directly mixed into nutrient broth. DMSO solutions of the test compound (max. 10 mg/ml) are diluted with 0.025% Tween20 by a factor of 50 and 10 μl of this solution is pipetted into a microtiter plate (96-well format). The nutrient broth containing the fungal spores/mycelia fragments is then added to give an end concentration of the tested compound. The test plates are incubated in the dark at 24° C. and 96% relative humidity. The inhibition of fungal growth is determined photometrically after 2 to 7 days, depending on the pathosystem, and percent antifungal activity relative to the untreated check is calculated.
Fungicidal activity against Glomerella lagenarium (Colletotrichum lagenarium) liquid culture/cucumber/Preventative (Anthracnose)
Conidia of the fungus from cryogenic storage are directly mixed into nutrient broth (PDB—potato dextrose broth). After placing a (DMSO) solution of test compound into a microtiter plate (96-well format), the nutrient broth containing the fungal spores is added.
The following compounds at 20 ppm in the applied formulation give at least 80% disease control in this test when compared to untreated control under the same conditions, which show extensive disease development.
For `O=C(C1=CCCC1)N(Cc1ccc(-c2noc(C(F)(F)F)n2)cc1)CC1CCCO1` (stereo not drawn) [Compound 1.420, N-(tetrahydrofuran-2-ylmethyl)-N-[[4-[5-(trifluoromethyl)-1,2,4-oxadiazol-3-yl]phenyl]methyl]-cyclopentene-1-carboxamide], the inhibition of growth at 20 ppm is at least 80%.

For `CC1(C)CC1C(=O)N(Cc1ccc(-c2noc(C(F)(F)F)n2)cc1)CC1CC1` (stereo not drawn) [Compound 1.231, N-(cyclopropylmethyl)-2,2-dimethyl-N-[[4-[5-(trifluoromethyl)-1,2,4-oxadiazol-3-yl]phenyl]methyl]-cyclopropane-carboxamide], the inhibition of growth at 20 ppm is at least 80%. The value for `COCCC(=O)N(Cc1ccc(-c2noc(C(F)(F)F)n2)cc1)OCC=C(Cl)Cl` [Compound 1.533, N-(3,3-dichloroallyloxy)-3-methoxy-N-[[4-[5-(trifluoromethyl)-1,2,4-oxadiazol-3-yl]phenyl]methyl]-propanamide] was at least 80%.

For the compound `C#CC(=O)N(OC)C(C)c1ccc(-c2noc(C(F)(F)F)n2)cc1` (stereo not drawn) [Compound 1.269, N-methoxy-N-[1-[4-[5-(trifluoromethyl)-1,2,4-oxadiazol-3-yl]phenyl]ethyl]prop-2-ynamide], the inhibition of growth at 20 ppm was at least 80%.

Regarding `O=C(C1CC1)N(Cc1ccc(-c2noc(C(F)(F)F)n2)cc1)OCc1ccc(Cl)cc1` [Compound 1.561, N-[(4-chlorophenyl)-methoxy]-N-[[4-[5-(trifluoromethyl)-1,2,4-oxadiazol-3-yl]phenyl]methyl]-cyclopropane-carboxamide], the inhibition of growth at 20 ppm is at least 80%. The value for `CON(Cc1ccc(-c2noc(C(F)(F)F)n2)cc1)C(=O)c1cc2c(cc1Br)OCO2` [Compound 1.55, 6-bromo-N-methoxy-N-[[4-[5-(trifluoromethyl)-1,2,4-oxadiazol-3-yl]phenyl]methyl]-1,3-benzoxlioxole-5-carboxamide] was at least 80%; that for `N#Cc1ccc(CC(=O)N(Cc2ccc(-c3noc(C(F)(F)F)n3)cc2)CC2CC2)cc1` [Compound 1.236, 2-(4-cyanophenyl)-N-(cyclopropylmethyl)-N-[[4-[5-(trifluoromethyl)-1,2,4-oxadiazol-3-yl]phenyl]methyl]-acetamide] was at least 80%; that for `CON(C(=O)C1(C)CC1)C(C)c1ccc(-c2noc(C(F)(F)F)n2)cc1` (stereo not drawn) [Compound 1.268, N-methoxy-1-methyl-N-[1-[4-[5-(trifluoromethyl)-1,2,4-oxadiazol-3-yl]phenyl]ethyl]-cyclopropane-carboxamide] was at least 80%. For `C=C(C)C(=O)N(Cc1ccc(-c2noc(C(F)(F)F)n2)cc1)OCCC` [Compound 1.304, 2-methyl-N-propoxy-N-[[4-[5-(trifluoromethyl)-1,2,4-oxadiazol-3-yl]phenyl]methyl]-prop-2-enamide], the inhibition of growth at 20 ppm was at least 80%. With `CON(Cc1ccc(-c2noc(C(F)(F)F)n2)cc1)C(=O)CCc1ccc(Cl)cc1` [Compound 1.18, 3-(4-chlorophenyl)-N-methoxy-N-[[4-[5-(trifluoromethyl)-1,2,4-oxadiazol-3-yl]phenyl]methyl]-propanamide], the inhibition of growth at 20 ppm was at least 80%.

For the compound `O=C(c1cccc(C(F)(F)F)c1)N(Cc1ccc(-c2noc(C(F)(F)F)n2)cc1)C1CC1` [Compound 1.88, N-cyclopropyl-3-(trifluoromethyl)-N-[[4-[5-(trifluoromethyl)-1,2,4-oxadiazol-3-yl]phenyl]methyl]-benzamide], the inhibition of growth at 20 ppm is at least 80%. As for `O=C(CCl)N(Cc1ccc(-c2noc(C(F)(F)F)n2)cc1)OCc1ccc(Cl)cc1` [Compound 1.553, 2-chloro-N-[(4-chlorophenyl)-methoxy]-N-[[4-[5-(trifluoromethyl)-1,2,4-oxadiazol-3-yl]phenyl]methyl]-acetamide], the inhibition of growth at 20 ppm is at least 80%. For the compound `CON(C(=O)C1CC1C)C(C)c1ccc(-c2noc(C(F)(F)F)n2)cc1` (stereo not drawn) [Compound 1.265, N-methoxy-2-methyl-N-[1-[4-[5-(trifluoromethyl)-1,2,4-oxadiazol-3-yl]phenyl]ethyl]-cyclopropane-carboxamide], the inhibition of growth at 20 ppm is at least 80%. To `CON(Cc1ccc(-c2noc(C(F)(F)F)n2)cc1)C(=O)Cc1ccc(C(F)(F)F)cc1` [Compound 1.68, N-methoxy-N-[[4-[5-(trifluoromethyl)-1,2,4-oxadiazol-3-yl]phenyl]methyl]-2-[4-(trifluoromethyl)-phenyl]acetamide] belongs at least 80%; to `CCC1(C(=O)N(Cc2ccc(-c3noc(C(F)(F)F)n3)cc2)OC)C(C)C1(Cl)Cl` (stereo not drawn) [Compound 1.61, 2,2-dichloro-1-ethyl-N-methoxy-3-methyl-N-[[4-[5-(trifluoromethyl)-1,2,4-oxadiazol-3-yl]phenyl]methyl]-cyclopropane-carboxamide], at least 80%; to `O=C(CC1CC1(F)F)N(Cc1ccc(-c2noc(C(F)(F)F)n2)cc1)CC1CC1` (stereo not drawn) [Compound 1.240, N-(cyclopropylmethyl)-2-(2,2-difluorocyclopropyl)-N-[[4-[5-(trifluoromethyl)-1,2,4-oxadiazol-3-yl]phenyl]methyl]-acetamide], at least 80%. The value for `CC1CC1C(=O)N(Cc1ccc(-c2noc(C(F)(F)F)n2)cc1)OCC=C(Cl)Cl` (stereo not drawn) [Compound 1.536, N-(3,3-dichloroallyloxy)-2-methyl-N-[[4-[5-(trifluoromethyl)-1,2,4-oxadiazol-3-yl]phenyl]methyl]-cyclopropane-carboxamide] was at least 80%; that for `O=C(CCl)N(Cc1ccc(-c2noc(C(F)(F)F)n2)cc1)OCC=C(Cl)Cl` [Compound 1.538, 2-chloro-N-(3,3-dichloroallyloxy)-N-[[4-[5-(trifluoromethyl)-1,2,4-oxadiazol-3-yl]phenyl]methyl]-acetamide] was at least 80%. To `COc1ccc(C2(C(=O)N(Cc3ccc(-c4noc(C(F)(F)F)n4)cc3)OC)CC2)cc1` [Compound 1.74, N-methoxy-1-(4-methoxyphenyl)-N-[[4-[5-(trifluoromethyl)-1,2,4-oxadiazol-3-yl]phenyl]methyl]-cyclopropane-carboxamide] belongs at least 80%; to `CCCON(Cc1ccc(-c2noc(C(F)(F)F)n2)cc1)C(=O)C(CC)COC` (stereo not drawn) [Compound 1.311, 2-(methoxymethyl)-N-propoxy-N-[[4-[5-(trifluoromethyl)-1,2,4-oxadiazol-3-yl]phenyl]methyl]-butanamide], at least 80%; to `CCCCON(Cc1ccc(-c2noc(C(F)(F)F)n2)cc1)C(=O)C(C)C` [Compound 1.633, N-butoxy-2-methyl-N-[[4-[5-(trifluoromethyl)-1,2,4-oxadiazol-3-yl]phenyl]methyl]-propanamide], at least 80%.

For the compound `CCCCC(=O)N(OC)C(C)c1ccc(-c2noc(C(F)(F)F)n2)cc1` (stereo not drawn) [Compound 1.281, N-methoxy-N-[1-[4-[5-(trifiuoromethyl)-1,2,4-oxadiazol-3-yl]phenyl]ethyl]-pentanamide], the inhibition of growth at 20 ppm is at least 80%. On to `CCCON(Cc1ccc(-c2noc(C(F)(F)F)n2)cc1)C(=O)C1=CCCC1` [Compound 1.291, N-propoxy-N-[[4-[5-(trifiuoromethyl)-1,2,4-oxadiazol-3-yl]phenyl]methyl]-cyclopentene-1-carboxamide], for which the inhibition of growth at 20 ppm is at least 80%. The value for `O=C(C1CCCC1)N(Cc1ccc(-c2noc(C(F)(F)F)n2)cc1)CC1CCCO1` (stereo not drawn) [Compound 1.419, N-(tetrahydrofuran-2-ylmethyl)-N-[[4-[5-(trifluoromethyl)-1,2,4-oxadiazol-3-yl]phenyl]methyl]-cyclopentane-carboxamide] was at least 80%; that for `CCCON(Cc1ccc(-c2noc(C(F)(F)F)n2)cc1)C(=O)COCC` [Compound 1.297, 2-ethoxy-N-propoxy-N-[[4-[5-(trifluoromethyl)-1,2.4-oxadiazol-3-yl]phenyl]methyl]-acetamide] was at least 80%; that for `CCCC(=O)N(Cc1ccc(-c2noc(C(F)(F)F)n2)cc1)OCC=C(Cl)Cl` [Compound 1.541, N-(3,3-dichloroallyloxy)-N-[[4-[5-(trifluoromethyl)-1,2,4-oxadiazol-3-yl]phenyl]methyl]-butanamide] was at least 80%. On to `O=C(C1CC1F)N(Cc1ccc(-c2noc(C(F)(F)F)n2)cc1)OCc1ccc(Cl)cc1` (stereo not drawn) [Compound 1.558, N-[(4-chlorophenyl)-methoxy]-2-fluoro-N-[[4-[5-(trifluoromethyl)-1,2,4-oxadiazol-3-yl]phenyl]methyl]-cyclopropane-carboxamide], for which the inhibition of growth at 20 ppm was at least 80%. To `CCCCOC(=O)N(Cc1ccc(-c2noc(C(F)(F)F)n2)cc1)OC` [Compound 2.12, butyl N-methoxy-N-[[4-[5-(trifluoromethyl)-1,2,4-oxadiazol-3-yl]phenyl]methyl]-carbamate] belongs at least 80%. As for `CCCC(C)(C)C(=O)N(Cc1ccc(-c2noc(C(F)(F)F)n2)cc1)C1CC1` [Compound 1.85, N-cyclopropyl-2,2-dimethyl-N-[[4-[5-(trifluoromethyl)-1,2,4-oxadiazol-3-yl]phenyl]methyl]-pentanamide], the inhibition of growth at 20 ppm was at least 80%. To `CCCON(Cc1ccc(-c2noc(C(F)(F)F)n2)cc1)C(=O)CC1CC1` [Compound 1.289, 2-cyclopropyl-N-propoxy-N-[[4-[5-(trifluoromethyl)-1,2,4-oxadiazol-3-yl]phenyl]methyl]-acetamide] belongs at least 80%.

The record behind these values is US11180462B2, “Microbiocidal oxadiazole derivatives” (SYNGENTA PARTICIPATIONS AG, priority 2015, dated 2021).
